Where two headings read alike, the source gives them in different places.
Experiments:
[1] = system: common mosquito (Culex pipiens pallens); assay: Inhibition of emergence of last instar larvae of common mosquito (Test Example 1); type: in vivo
Protocol: An emulsifiable concentrate prepared according to Formulation Example 1 was diluted with water to make a designed concentration. The dilution (0.7 ml) was added to 100 ml of distilled water. Last instar larvae of common mosquito (Culex pipiens pallens) were released therein and reared for 7 days until their emergence, and the concentration for 50% inhibition (IC50) was examined.

[2] = system: housefly (Musca domestica); assay: Inhibition test on housefly larvae reared in artificial culture until pupation, pupae examined (Test Example 2); type: in vivo
Protocol: Powdered animal feed (2 g) was thoroughly mixed with bran (14 g). An emulsifiable concentrate prepared according to Formulation Example 1 was diluted with water to a designed concentration, and the dilution was added to the above mixture. The resultant mixture was stirred well to make an artificial culture. Thirty larvae of housefly (Musca domestica) were reared therein until their pupation. The obtained pupae were placed into a plastic cup, and the concentration for 50% inhibition was examined in the same manner as in Test Example 1.

[3] = last instar larvae, 0.7 ml dilution of emulsifiable concentrate added to 100 ml distilled water, reared for 7 days until emergence
[4] = thirty larvae reared in artificial culture (powdered animal feed 2 g, bran 14 g, diluted emulsifiable concentrate) until pupation, pupae placed into plastic cup

Compound | concentration for 50% inhibition (IC50) [1, 3] | concentration for 50% inhibition (IC50) [2, 4] | further results
COC(C)(C)CCCC(C)CC=CC(C)=CC(=O)OC(C)C (centres unmarked) [(A), methoprene] |  |  | concentration for 50% inhibition (IC50) ([1]; 168 h): 0.00018 ppm; concentration for 50% inhibition (IC50) [2]: 2.3 ppm
c1ccc(Oc2ccc(OCCCc3ccccn3)cc2)cc1 [(B)] | 0.00013 ppm | > 3 ppm | 
Cn1nccc1COc1ccc(Oc2ccccc2)cc1 [(C)] |  | > 3 ppm | 
c1ccc(Oc2ccc(OCCn3cccn3)cc2)cc1 [(D)] | 0.00023 ppm |  | 
Clc1cccc(Oc2ccc(OCCn3cccn3)cc2)c1 [(E)] |  | 1.0 ppm | 
c1ccc(Oc2ccc(OCCCn3cccn3)cc2)cc1 [(F)] | 0.0007 ppm |  | 
Clc1cc(Cl)cc(Oc2ccc(OCCCn3cccn3)cc2)c1 [(G)] |  | 1.8 ppm | 
Fc1cc(F)cc(Oc2ccc(OCCCn3cccn3)cc2)c1 [Pyrazole compound (I), 1-{3-[4-(3,5-difluorophenoxy)phenoxy]propyl}pyrazole] | 0.000009 ppm | 0.14 ppm | 
